The structures appear in SMILES notation. pEC50: −log10 of the molar value.

T2 sequence (Q96P20 whole entry): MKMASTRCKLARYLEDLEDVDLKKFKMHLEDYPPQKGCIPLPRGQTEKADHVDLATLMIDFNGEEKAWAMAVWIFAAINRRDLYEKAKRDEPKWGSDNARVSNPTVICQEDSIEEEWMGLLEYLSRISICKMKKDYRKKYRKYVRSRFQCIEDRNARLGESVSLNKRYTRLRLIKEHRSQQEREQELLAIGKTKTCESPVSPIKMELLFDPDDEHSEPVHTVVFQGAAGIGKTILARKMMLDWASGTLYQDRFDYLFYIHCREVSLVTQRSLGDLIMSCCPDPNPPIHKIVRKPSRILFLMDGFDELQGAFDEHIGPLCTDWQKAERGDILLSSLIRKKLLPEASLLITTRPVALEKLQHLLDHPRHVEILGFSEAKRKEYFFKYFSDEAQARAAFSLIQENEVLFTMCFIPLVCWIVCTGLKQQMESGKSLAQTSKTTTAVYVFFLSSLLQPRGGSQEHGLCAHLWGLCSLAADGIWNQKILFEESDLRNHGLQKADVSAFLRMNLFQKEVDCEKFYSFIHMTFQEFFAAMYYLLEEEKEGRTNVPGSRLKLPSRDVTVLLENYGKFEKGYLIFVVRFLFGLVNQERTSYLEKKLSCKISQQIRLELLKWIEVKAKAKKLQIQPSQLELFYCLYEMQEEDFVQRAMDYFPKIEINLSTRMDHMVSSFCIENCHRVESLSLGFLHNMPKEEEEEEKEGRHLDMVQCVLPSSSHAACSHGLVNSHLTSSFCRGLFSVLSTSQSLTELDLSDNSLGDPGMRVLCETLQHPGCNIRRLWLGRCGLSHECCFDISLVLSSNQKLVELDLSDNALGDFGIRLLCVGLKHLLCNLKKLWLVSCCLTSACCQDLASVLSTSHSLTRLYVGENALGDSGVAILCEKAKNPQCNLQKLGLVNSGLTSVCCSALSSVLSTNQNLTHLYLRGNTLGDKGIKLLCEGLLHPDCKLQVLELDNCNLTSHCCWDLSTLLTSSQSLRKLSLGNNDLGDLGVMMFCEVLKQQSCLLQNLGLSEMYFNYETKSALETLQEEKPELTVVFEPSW

The first test deals with T1, human TLR7 (Homo sapiens, UniProt Q9NYK1).
T1 construct: host or cells: human HEK-Blue cells with NF-kB/AP1-inducible SEAP reporter
T1 sequence (Q9NYK1 27-1049): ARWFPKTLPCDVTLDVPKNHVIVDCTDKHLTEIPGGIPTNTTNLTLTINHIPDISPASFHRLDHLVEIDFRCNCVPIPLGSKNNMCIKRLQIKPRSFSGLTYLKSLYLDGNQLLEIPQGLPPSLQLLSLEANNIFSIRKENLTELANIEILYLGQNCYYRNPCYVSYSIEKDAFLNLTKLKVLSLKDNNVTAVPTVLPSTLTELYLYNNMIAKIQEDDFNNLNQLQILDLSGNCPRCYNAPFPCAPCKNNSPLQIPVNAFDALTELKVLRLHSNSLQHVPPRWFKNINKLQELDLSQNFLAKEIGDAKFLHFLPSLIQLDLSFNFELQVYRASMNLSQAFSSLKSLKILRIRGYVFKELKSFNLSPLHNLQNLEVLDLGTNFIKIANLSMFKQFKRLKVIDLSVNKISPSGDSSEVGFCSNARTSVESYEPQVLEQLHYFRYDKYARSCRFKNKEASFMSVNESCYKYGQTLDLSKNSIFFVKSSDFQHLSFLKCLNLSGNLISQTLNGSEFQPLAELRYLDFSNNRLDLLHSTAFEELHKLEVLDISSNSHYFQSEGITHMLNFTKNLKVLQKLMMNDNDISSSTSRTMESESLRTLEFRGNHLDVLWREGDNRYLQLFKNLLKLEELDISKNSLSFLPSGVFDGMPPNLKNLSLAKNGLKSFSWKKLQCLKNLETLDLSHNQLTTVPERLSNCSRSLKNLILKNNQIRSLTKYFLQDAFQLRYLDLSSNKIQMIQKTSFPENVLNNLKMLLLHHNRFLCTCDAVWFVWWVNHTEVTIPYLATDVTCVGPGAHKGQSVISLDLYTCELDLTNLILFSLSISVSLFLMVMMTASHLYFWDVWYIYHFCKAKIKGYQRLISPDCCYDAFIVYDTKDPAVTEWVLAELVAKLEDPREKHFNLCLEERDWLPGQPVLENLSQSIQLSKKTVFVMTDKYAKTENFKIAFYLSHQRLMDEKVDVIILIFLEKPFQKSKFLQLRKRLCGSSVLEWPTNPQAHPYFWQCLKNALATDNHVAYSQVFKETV
Nature of the test: In vitro human TLR7 reporter assay (HEK-Blue, NF-kB/AP1-inducible SEAP). The class given is cell-based. The conditions noted are these: HEK-Blue TLR7 cells, SEAP reporter; read-out: TLR7 Agonist EC50 value. The protocol:
In Vitro Human TLR7 and TLR8 Binding Reporter Assays Logarithmically-growing human HEK-Blue cells co-expressing a TLR7 or TLR8 gene and a NF-kB/AP1-inducible SEAP (secreted embryonic alkaline phosphatase; […] Cellular SEAP production is measured using an Envision plate reader instrument thirty minutes after adding freshly-made Quanti-Blue reagent (prepared by following manufacturer instructions; Invivogen, San Diego, CA) to the HEK-Blue TLR Nf-kB-SEAP cell reactions. All EC50 values (half-maximal effective concentration) are determined using proprietary data analysis software.
Consider `CCCC(CCO)Nc1nc(N)nc2cc(-c3ccn[nH]3)ccc12` (racemic) [Example 96, rac-3-((2-amino-7-(1H-pyrazol-5-yl)quinazolin-4-yl)amino)hexan-1-ol], for which the pEC50 was 4.70 to 6.00.

Consider `CCCCC(CCO)Nc1nc(N)nc2cc(-c3ccn[nH]3)ccc12` (racemic) [Example 99, rac-3-((2-amino-7-(1H-pyrazol-5-yl)quinazolin-4-yl)amino)heptan-1-ol], for which the pEC50 is 4.70 to 6.00.

`CCCC(CCO)Nc1nc(N)nc2cc(-c3ccn[nH]3)ccc12` (single isomer, unassigned) [Example 97, 3-((2-amino-7-(1H-pyrazol-5-yl)quinazolin-4-yl)amino)hexan-1-ol]: the pEC50 was 4.70 to 6.00.

Take `CCCCC(CCO)Nc1nc(N)nc2cc(-c3ccn[nH]3)ccc12` (single isomer, unassigned) [Example 100, 3-((2-amino-7-(1H-pyrazol-5-yl)quinazolin-4-yl)amino)heptan-1-ol]: the pEC50 is 4.70 to 6.00.

As for `COCC(COC)Nc1nc(N)nc2cc(-c3ccn[nH]3)ccc12` [Example 79], the pEC50 is 4.00 to 4.70.

A further test has as its target T2, NLRP3 (Homo sapiens, UniProt Q96P20).
T2 construct: host or cells: PMA-differentiated THP-1 cells
The test can be described thus: Measurement of IL-1β production in PMA-differentiated THP-1 cells (NLRP3 hIL1B). The class given is cell-based.
Conditions: not given
The procedure, abridged:
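THP-1 cells differentiated with PMA, then replated in RPMI with 2% FBS and exposed to compound for 4 h (alternative: 2 h; hTRF protocol: 2 h at 37 °C, top concentration 10 μM). Supernatant IL-1β was quantified by ELISA or HTRF. Final DMSO 1%, with vehicle control.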
As for `CCCC(CCO)Nc1nc(N)nc2cc(-c3ccn[nH]3)ccc12` (racemic) [Example 96, rac-3-((2-amino-7-(1H-pyrazol-5-yl)quinazolin-4-yl)amino)hexan-1-ol], the pEC50 is 6.16.

As to `CCCCC(CCO)Nc1nc(N)nc2cc(-c3ccn[nH]3)ccc12` (racemic) [Example 99, rac-3-((2-amino-7-(1H-pyrazol-5-yl)quinazolin-4-yl)amino)heptan-1-ol], the pEC50 was 6.13.

Regarding `CCCC(CCO)Nc1nc(N)nc2cc(-c3ccn[nH]3)ccc12` (single isomer, unassigned) [Example 97, 3-((2-amino-7-(1H-pyrazol-5-yl)quinazolin-4-yl)amino)hexan-1-ol], the pEC50 is 6.15.

`CCCCC(CCO)Nc1nc(N)nc2cc(-c3ccn[nH]3)ccc12` (single isomer, unassigned) [Example 100, 3-((2-amino-7-(1H-pyrazol-5-yl)quinazolin-4-yl)amino)heptan-1-ol] showed a pEC50 of 6.35.

With `COCC(COC)Nc1nc(N)nc2cc(-c3ccn[nH]3)ccc12` [Example 79], the pEC50 is 5.92.

As to `Cc1cc(-c2cc[nH]n2)cc2nc(N)nc(NCc3cc[nH]n3)c12` [Example 137], the pEC50 is 6.77.

As to `Nc1nc(N[C@@H]2COCC[C@H]2O)c2ccc(-c3ccn[nH]3)cc2n1` [Example 138], the pEC50 is 5.67.

Turning to `CN1CC[C@H](Nc2nc(N)nc3cc(-c4ccn[nH]4)ccc23)C1` [Example 139], the pEC50 is 5.75.

Take `Nc1nc(NCCOCCO)c2ccc(-c3ccn[nH]3)cc2n1` [Example 140]: the pEC50 was 5.99.

Turning to `Nc1nc(NCc2cccnn2)c2ccc(-c3ccn[nH]3)cc2n1` [Example 142], the pEC50 is 6.29.

The compound `Cc1cc(C)c(CNc2nc(N)nc3cc(-c4ccn[nH]4)ccc23)c(=O)[nH]1` [Example 143] showed a pEC50 of 5.91.

In turn, `Nc1nc(NCc2cccnc2)c2ccc(-c3ccn[nH]3)cc2n1` [Example 144] had a pEC50 of 7.05.

Compound `Cn1cnc(CNc2nc(N)nc3cc(-c4ccn[nH]4)ccc23)c1` [Example 146] had a pEC50 of 5.07.

`Nc1nc(NCc2cn[nH]c2)c2ccc(-c3ccn[nH]3)cc2n1` [Example 147]: the pEC50 is 6.59.

The compound `Nc1nc(NCCc2cnc[nH]2)c2ccc(-c3ccn[nH]3)cc2n1` [Example 148] gave a pEC50 of 6.29.

For the compound `Nc1nc(NCc2ccc(Cl)cn2)c2ccc(-c3ccn[nH]3)cc2n1` [Example 151], the pEC50 was 6.19.

With `Nc1nc(NCCc2cccnc2)c2ccc(-c3ccn[nH]3)cc2n1` [Example 153], the pEC50 is 6.38.

For the compound `Nc1nc(N[C@H]2C[C@H](O)C2)c2ccc(-c3ccn[nH]3)cc2n1` [Example 154], the pEC50 is 6.80.

With `Nc1nc(NCc2cocn2)c2ccc(-c3ccn[nH]3)cc2n1` [Example 155], the pEC50 was 6.31.

The compound `Nc1nc(NCc2cccc3[nH]ncc23)c2ccc(-c3ccn[nH]3)cc2n1` [Example 156] gave a pEC50 of 6.36.

For `Nc1nc(NCCN2CCOCC2)c2ccc(-c3ccn[nH]3)cc2n1` [Example 157], the pEC50 is 5.88.

Compound `Nc1nc(N[C@H]2C[C@@H](O)C2)c2ccc(-c3ccn[nH]3)cc2n1` [Example 158] showed a pEC50 of 5.80.

As for `Nc1nc(N[C@H]2CC[C@@H](O)C2)c2ccc(-c3ccn[nH]3)cc2n1` [Example 159], the pEC50 was 6.37.

In the case of `COc1cccc(CNc2nc(N)nc3cc(-c4ccn[nH]4)ccc23)n1` [Example 160], the pEC50 was 6.19.

In turn, `Cc1cccc2nc(CNc3nc(N)nc4cc(-c5ccn[nH]5)ccc34)cn12` [Example 161] showed a pEC50 of 5.70.

Consider `CN(C)c1ccc(CNc2nc(N)nc3cc(-c4ccn[nH]4)ccc23)nn1` [Example 164, N4-((6-(dimethylamino)pyridazin-3-yl)methyl)-7-(1H-pyrazol-5-yl)quinazoline-2,4-diamine], for which the pEC50 is 5.91.

`Nc1nc(NC[C@H]2C[C@@H](O)C2)c2ccc(-c3ccn[nH]3)cc2n1` [Example 166] gave a pEC50 of 6.09.

In turn, `Nc1nc(NC[C@H]2C[C@H](O)C2)c2ccc(-c3ccn[nH]3)cc2n1` [Example 167] showed a pEC50 of 5.91.

Compound `CCn1cc(CNc2nc(N)nc3cc(-c4ccn[nH]4)ccc23)cn1` [Example 168] gave a pEC50 of 5.89.

`Nc1nc(NCc2cnn(-c3ccccc3)c2)c2ccc(-c3ccn[nH]3)cc2n1` [Example 169] showed a pEC50 of 6.14.

Consider `Nc1nc(NCc2ncccc2F)c2ccc(-c3ccn[nH]3)cc2n1` [Example 170], for which the pEC50 was 6.70.

`Nc1nc(NCc2ccccn2)c2ccc(-c3ccn[nH]3)cc2n1` [Example 171] had a pEC50 of 6.57.

`COCCN1CCCC1CNc1nc(N)nc2cc(-c3ccn[nH]3)ccc12` (centres unmarked) [Example 172] gave a pEC50 of 5.59.

The compound `CO[C@H]1C[C@H](Nc2nc(N)nc3cc(-c4ccn[nH]4)ccc23)C1` [Example 173] showed a negative logarithm of the EC50 (pEC50) of 6.85.

As for `Nc1nc(NCc2cnsc2)c2ccc(-c3ccn[nH]3)cc2n1` [Example 174], the pEC50 is 6.74.

In turn, `Nc1nc(NCc2cncs2)c2ccc(-c3ccn[nH]3)cc2n1` [Example 175] gave a pEC50 of 6.14.

The compound `Nc1nc(N[C@H]2C[C@H](CO)C2)c2ccc(-c3ccn[nH]3)cc2n1` [Example 176] had a pEC50 of 7.05.

Compound `Nc1nc(NC2CCC2)c2ccc(-c3ccn[nH]3)cc2n1` [Example 177] had a pEC50 of 6.80.

Regarding `CC(C)(C)Nc1nc(N)nc2cc(-c3ccn[nH]3)ccc12` [Example 180], the pEC50 was 6.15.

The compound `CC(C)(C)CNc1nc(N)nc2cc(-c3ccn[nH]3)ccc12` [Example 181] gave a pEC50 of 6.74.

In the case of `N#C[C@H]1CC[C@H](Nc2nc(N)nc3cc(-c4ccn[nH]4)ccc23)CC1` [Example 182], the negative-log EC50 (pEC50) was 6.89.

Regarding `Nc1nc(NOCCO)c2ccc(-c3ccn[nH]3)cc2n1` [Example 186], the pEC50 was 5.52.

The compound `Nc1nc(NCc2ccn(-c3ccccn3)n2)c2ccc(-c3ccn[nH]3)cc2n1` [Example 187] showed a pEC50 of 6.64.

For `COc1cnnc(CNc2nc(N)nc3cc(-c4ccn[nH]4)ccc23)c1` [Example 188], the pEC50 was 5.08.

`Cn1cnc(CNc2nc(N)nc3cc(-c4ccn[nH]4)ccc23)n1` [Example 189] had a pEC50 of 5.85.

Regarding `CCn1cc(CNc2nc(N)nc3cc(-c4ccn[nH]4)ccc23)nn1` [Example 190], the pEC50 was 5.31.

In turn, `C[C@]1(O)C[C@@H](Nc2nc(N)nc3cc(-c4ccn[nH]4)ccc23)C1` [Example 191, (cis)-3-((2-amino-7-(1H-pyrazol-5-yl)quinazolin-4-yl)amino)-1-methylcyclobutan-1-ol] had a pEC50 of 6.34.

`C[C@]1(O)C[C@H](Nc2nc(N)nc3cc(-c4ccn[nH]4)ccc23)C1` [Example 192, (trans)-3-((2-amino-7-(1H-pyrazol-5-yl)quinazolin-4-yl)amino)-1-methylcyclobutan-1-ol] had a pEC50 of 6.43.

The compound `Nc1nc(NC2CC2)c2ccc(-c3cc[nH]n3)cc2n1` [Example 193] had a pEC50 of 7.00.

For `Nc1nc(NCC2(CN3CCCC3)CC2)c2ccc(-c3cc[nH]n3)cc2n1` [Example 194], the negative-log EC50 (pEC50) is 6.68.

Compound `Nc1nc(NCC2(CN3CCOCC3)CC2)c2ccc(-c3cc[nH]n3)cc2n1` [Example 195] gave a pEC50 of 6.52.

`COCC1(CNc2nc(N)nc3cc(-c4cc[nH]n4)ccc23)CC1` [Example 196] had a pEC50 of 6.64.

Consider `Nc1nc(NCC2(O)CC2)c2ccc(-c3cc[nH]n3)cc2n1` [Example 197], for which the pEC50 is 6.51.

`Nc1nc(NCC2(CO)CC2)c2ccc(-c3ccn[nH]3)cc2n1` [Example 204] gave a pEC50 of 6.74.

These data come from patent US12187706B2, “NLRP3 modulators” (INNATE TUMOR IMMUNITY, INC., priority 2019, dated 2025).
